From paper PMC11079029, “Intramolecular autoinhibition regulates the selectivity of PRPF40A tandem WW domains for proline-rich motifs” (Nature Communications, 2024)
Read-outs that look alike come from different tables or passages of the source. No end group written: not given here.

Assays:
[1] = tested on: GFP-tagged PRPF40A-Nter-MUT; assay: SILAC GFP-immunoprecipitation with quantitative mass spectrometry, mutant construct; assay type: binding, human (Hela cells); conditions: quantitative MS, Hela cells, protein by gene name
Protocol: The PRPF40A N-terminal region (isoform 2, residues 1-221) was PCR-amplified from RPE1 cDNA (ATCC, Cat# CRL-4000) cDNA. The sequence was amplified in two fragments and both fragments were combined by overhang. All PCRs were carried out using Q5 Polymerase (NEB) according to manufacturer’s protocol. The resulting PRPF40A N-terminal region was cloned into a GFP-expressing pcDNA5 vector (see pcDNA5 GFP vector in ref. [28]) using Q5 Site-Directed Mutagenesis Kit (NEB). Nter-MUT, containing the PPVP/PALPP motifs changed to AAAA/AAAAA, was obtained by mutating the N-ter-WW12-containing plasmid with Q5 site-directed mutagenesis. Plasmids were transformed into DH5alpha chemically competent cells. After culturing, DNA isolation was performed with either ZymoPURE Plasmid Miniprep Kit (Zymo Research) or QIAGEN Plasmid Plus Midi Kit (Qiagen). The sequence was confirmed by Sanger Sequencing (GATC Eurofins). All used oligonucleotides are shown in Supplementary Table 6.
Hela cells (ATCC, Cat# CCL-2, RRID:CVCL_0030) were cultured in DMEM SILAC medium (Thermo Fisher) supplemented with 10% filtered FBS (Sigma-Aldrich) and 1% penicillin-streptomycin (Thermo-Fisher). The SILAC medium contains either light (Arg0, Lys0), medium (Arg6, Lys4) or heavy (Arg10, Lys8) isotopes (Cambridge Isotopes Laboratories). Hela cells were cultivated for 14 days in SILAC medium to assure sufficient isotope incorporation. For transfection, 7 × 10^6 Hela cells were seeded in a 15 cm culture dish in 20 ml of respective SILAC medium and grown for 24 h. The cells were then transfected with 20 µg of plasmids expressing either GFP (Control), GFP-tagged N-ext-WW12 or GFP-tagged-N-ext-WW12-MUT utilizing 64 µl FuGENE (Promega) (ratio 1:3.2), according to manufacturer’s protocol.
24 h post-transfection, cells were washed twice in ice-cold PBS and harvested in 1 ml mRIPA buffer (50 mM Tris, 150 mM NaCl, 1 mM EDTA, 1% NP-40, 0.1% Na-deoxycholate), supplemented with 2 µl Turbo-DNase (Thermo Fisher) and 3 µl protease-inhibitor cocktail cOmplete (Sigma-Aldrich). Cell lysates were cleared by centrifugation at 16,000 × g, 4 °C, 15 min and concentration was measured using Pierce BCA Protein Assay kit (Thermo Scientific). The expressed constructs were pulled down by incubating 2.5 mg of lysate with 20 μl GFP-nanobody agarose beads (ChromoTek, GTA-20) for 1 h at 4 °C under constant agitation. Subsequently, beads were washed three times with mRIPA buffer without supplements, then eluted in 1X NuPAGE LDS sample buffer (Thermo Scientific). To detach the proteins from the beads, the eluate was heated to 70 °C for 10 min To evaluate the success of the immunoprecipitation, input (1%) and IP samples were analyzed on a NuPAGE 4–12% Bis-Tris-Acrylamide gel (Thermo Fisher) using NuPAGE MOPS SDS running buffer (Thermo Fisher). Proteins were stained using Sypro Ruby protein gel stain (Thermo Fisher) according to manufacturer’s protocol.
The eluted proteins of three SILAC states (light, medium, heavy) were combined. The proteins were then reduced in DTT, alkylated in iodoacetamide, and purified using the SP3 paramagnetic bead approach. This was followed by overnight enzymatic digestion using trypsin (1 µg per sample) in 50 mM ammonium bicarbonate at 37 °C. The peptide solution was then purified by solid phase extraction in C18 StageTips[99].
Peptides were separated by online reverse phase liquid chromatography using the EASY-nLC 1000 system (Thermo Scientific) in a 30-cm analytical column (inner diameter: 75 μm; heated at 50 °C) packed in-house with ReproSil-Pur 120 C18-AQ 1.9-μm beads (Dr. Maisch GmbH). The gradient separation was performed through a 105-min non-linear gradient of 1.6–32% acetonitrile with 0.1% formic acid at a nanoflow rate of 225 nl/min. The eluted peptides were sprayed directly by electrospray ionization into a Q Exactive Plus Orbitrap mass spectrometer (Thermo Scientific). […]

[2] = biological target: T1, PRPF40A WW12 (tandem WW domains, residues 141–236) (Homo sapiens, UniProt O75400); assay: ITC of PRPF40A WW12 with GB1-tagged proline-rich peptides and constructs; assay type: binding; conditions: for N (sites): ITC as E1, peptide in the cell, N >1 = more than one WW tandem per peptide; for DH: ITC binding enthalpy; for Kd: ITC
T1 construct: WW12 141–236, WW12long 141–248, and N-ext-WW12 56–236; 6xHis-TEV site (N, cleaved yes); made in house; host or cells: Escherichia coli BL21(DE3)
From the text: PRPF40A isoform 1 sequences (N-ter 1–310, WW12short 141–223, WW12 141–236, WW12long 141–248, and N-ext-WW12 56–236) were amplified from a purchased DNA fragment (IDT) and cloned using NcoI and KpnI restriction sites into a pETM11 vector encoding 6xHis and TEV cleavage site as a N-terminal tag. SF1 (Pro A 410–468, Pro B 468–539, Pro C 539–594, Pro D 594–639, Pro BC 468–594, Pro CD 539–639, Pro BCD 468–639 and Pro ABCD 410–639) and SF3A1 (Middle Pro 364–413 and C-ter Pro 552–683) constructs were prepared in a similar manner using a pET24 vector with a 6xHis, GB1 and TEV cleavage site as N-terminal fusion cassette. 16-mer SF1 constructs (Table 1) and polyproline peptides (P6, P8, P10, P13, P16, P19, P22, P25, and P29) were cloned in the same pET24 vector with GB1 tag by direct ligation of purchased oligonucleotides (Eurofins). All peptide sequences contained N and C-terminal common residues to avoid boundary effects on binding: TEVsite-GAMSGS-peptide-SGSN. Mutants of PRPF40A WW12 and N-ext-WW12 constructs were prepared by site-directed mutagenesis. The truncated version of PRPF40A WW12 (141-217) was a gift from Dr. María Macías (IRB, Spain). All used oligonucleotides were purchased from Eurofins Genomics and are shown in Supplementary Table 6.
Resuspended cell pellets in 20 mM Tris pH 8.0, 500 mM NaCl, 10 mM imidazole, 0.5 mM TCEP, and protease inhibitors mix (SERVA) were lysed by cell disruption in a French press. Clear lysates, after centrifugation (at 18,000 g) and filtering, were loaded into Ni-NTA resin. The resin was then washed with 20 mM imidazole containing buffer, and the desired protein was eluted with 500 mM imidazole. PRPF40A constructs were then subjected to TEV protease treatment (homemade at a final concentration of ≈50 μg/ml), dialyzed overnight at 4 °C against an imidazole-free buffer, and then loaded again to Ni-NTA resin; desired digested proteins were obtained in the flow-through and wash fractions while uncleaved protein, TEV protease, and impurities remained bound to the resin. Cleaved PRPF40A proteins and GB1-tagged SF1, SF3A1, and polyproline constructs were further purified by size-exclusion chromatography on a HiLoad 16/60 Superdex 75 column (GE Healthcare) equilibrated with 20 mM sodium phosphate, pH 6.5, 100 mM NaCl and 1 mM DTT buffer. For the purification of PRPF40A WW12 in complex with SF1 peptide, cell pellets of recombinant expression for both proteins were mixed and processed together following the Ni-NTA—TEV digestion—reverse Ni-NTA—SEC-75 protocol; where the complex remained bound in a 1:1 stoichiometry throughout the whole purification (corroborated by NMR). Molecular weight of each sample was confirmed by mass spectrometry, purity was checked by PAGE-SDS, and protein concentrations were determined from the aromatic contribution to the UV absorbance spectra at 280 nm.
Experiments were conducted on a MicroCAl PEAQ-ITC (Malvern Instruments, UK) at 25 °C in 20 mM sodium phosphate pH 6.5 and 100 mM NaCl. PRPF40A was titrated into N-terminal GB1 tagged SF1 or polyproline constructs and vice versa with similar results. Protein concentrations in the cell were around 20–40 μM, while in the syringe ranged between 200 and 500 μM. Experiments were performed at least in duplicate with injections of 1.5 μL (0.4 μL for first point) separated by 150 s delays to recover thermal power baseline and continuous stirring in the cell (750 rpm) for correct mixing. The reference cell was filled with water in all experiments. Data were processed by removing the blank experiment (using digested GB1 fusion protein) and adjusted to one-site binding model with Malvern PEAQ-ITC Analysis software (Malvern Instruments, UK).

PRPF40A N-ext-WW12 = assay: NMR titration (1H-15N and 1H-13C HSQC) of N-ext-WW12 with SF1 peptides; assay type: binding, human; conditions: NMR titration of N-ext-WW12, ratios 1:1 up to 1:4
Protocol: NMR samples were prepared at concentrations ranging 100–1000 μM in buffer containing 20 mM sodium phosphate pH 6.5, 100 mM NaCl, 1 mM DTT, and 10% or 100% D2O, and measured at 25 °C (except stated otherwise) in 900-, 800-, 600- and 500-MHz Bruker Avance III NMR spectrometers equipped with cryogenic triple resonance gradient probes. Topspin 4.1.0 (Bruker) software was used for NMR data acquisition. Spectra were processed with NMRpipe 8.9[76] and analyzed using ccpnNMR Analysis 2.5 software.
^15N-labeled PRPF40A proteins (WW1, WW2, WW12, and N-extWW12) at around 100 μM concentration were titrated with increasing concentration ratios of polyproline or SF1 peptides (GB1 tagged) until reaching saturation, when possible; ^1H-^15N HSQC experiments and in some cases ^1H-^13C HSQC experiments (using double-labeled PRPF40A proteins) were acquired at each titration point. The chemical shift perturbation (CSP) was weighted using the Eqs. (1) and (2)[89].1 CSP(HN)=0.5⋅ΔδH2+0.14⋅ΔδN2 2 CSP(HC)=0.5⋅ΔδH2+0.3⋅ΔδC2

[3] = SF1 peptides, individual value 1 (replicate 1), read-out: Kd Values with WW12, individual value
[4] = SF1 peptides, individual value 2 (replicate 2), read-out: Kd Values with WW12, individual value
[5] = SF1 peptides, individual value 3 (replicate 3), read-out: Kd Values with WW12, individual value
[6] = SF1 peptides, individual value 4 (replicate 4), read-out: Kd Values with WW12, individual value

T1 sequence (O75400 141-236): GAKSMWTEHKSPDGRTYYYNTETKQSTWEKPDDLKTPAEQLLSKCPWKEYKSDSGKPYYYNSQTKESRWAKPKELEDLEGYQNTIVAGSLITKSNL

CCNT1;CCNT2
Immunoprecipitation enrichment MUT vs WT, log2 FC [1]: 1.3354

CDK9
Immunoprecipitation enrichment MUT vs WT, log2 FC [1]: 1.401

CDK12
Immunoprecipitation enrichment MUT vs WT, log2 FC [1]: 1.215

EFTUD2
Immunoprecipitation enrichment MUT vs WT, log2 FC [1]: 1.181

INF2
Immunoprecipitation enrichment MUT vs WT, log2 FC [1]: 1.013

MPPPPMGMMPPPPPPP [SF1_470–485]
N (sites) ([2]; WW tandem in the syringe): 0.90 ± 0.16 sites
DH ([2]; as E1): -13.6 ± 0.813 kcal/mol
Kd ([2]; 25 °C, 20 mM sodium phosphate pH 6.5, 100 mM NaCl, GB1-tagged polyproline or SF1 16-mer peptide in the cell, WW tandem in the syringe, one-site model, apparent Kd, average of at least duplicates, read-out: Kd): 13.9 ± 2.3 µM
Kd [2, 3]: 10.9 µM
Kd [2, 4]: 13.3 µM
Kd [2, 5]: 14 µM
Kd [2, 6]: 17.3 µM
displacement of the intramolecular N-terminal motifs (methyl signals Val 80, Val 129) (PRPF40A N-ext-WW12): cannot fully displace the intramolecular motifs

SAE1
Immunoprecipitation enrichment MUT vs WT, log2 FC [1]: 1.104

SF3A1 Middle Pro: GB1-tagged SF3A1 construct, residues 364–413, contains a PPLP motif (GB1-EGQKVPPPPETPMPPPLPPTPDQVIVRKDYDPKASKPLPPAPAPDEYLVS; also: His6 tag state not given here)
DH ([2]; as E4): -27.25 ± 6.48 kcal/mol

SNRNP200
Immunoprecipitation enrichment MUT vs WT, log2 FC [1]: 1.2097

TMVPLPPGVQPPLPPG [SF1_565–580, GB1-tagged 16-mer from the SF1 C-terminal region]
N (sites) ([2]; WW tandem in the syringe): 1.06 ± 0.11 sites
DH ([2]; as E1): -13.5 ± 1.96 kcal/mol
Kd [2, 3]: 24 µM
Kd [2, 4]: 37.8 µM
Kd [2, 5]: 23.4 µM
Kd [2, 6]: 36.5 µM

WIZ
Immunoprecipitation enrichment MUT vs WT, log2 FC [1]: 1.529
